Columns and labels:
[1] = Solubility of crystalline drug in water; format: physicochemical
[2] = test system: PTS; settings: oral; cited from earlier work
[3] = crystalline drug; cited from earlier work

SMILES: O=C(NC[C@H]1CN(c2ccc(N3CCOCC3=O)cc2)C(=O)O1)c1ccc(Cl)s1 [rivaroxaban, (S)-5-Chloro-N-((2-oxo-3-(4-(3-oxomorpholino)phenyl)oxazolidin-5-yl)methyl)thiophene-2-carboxamide]
- water solubility relative to paclitaxel and everolimus [1]: approximately 10 times
- risk of PTS [2]: significantly reduces the risk of PTS
- solubility in water [3]: about 3 μg drug per mL water
